Measured values taken from US11753407B2, “Compounds for treating spinal muscular atrophy” (PTC Therapeutics, Inc., priority 2012, dated 2023).

Experiments:
[1] = system: SMN2 minigene mRNA (SMN2-A minigene) in HEK293H cells; test: SMN2 minigene mRNA splicing RT-qPCR assay in cultured cells; type: cell-based, human; conditions: Homo sapiens, HEK293-H; concentration increasing full length SMN2 mRNA 1.5-fold relative to vehicle-treated cells; HEK293H cells with SMN2-A minigene, 24 hours, 7-point concentration data; read-out: EC1.5x for production of full length SMN2 mRNA
Procedure, shortened: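 EC1.5× = concentration raising full-length SMN2 minigene mRNA 1.5-fold over vehicle, from 7-point curves in duplicate. Stably transfected HEK293H cells exposed 24 h at 37 °C; lysates assayed by multiplex RT-qPCR, minigene FL signal normalized to GAPDH via modified ΔΔCt.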

[2] = system: Smn protein in SMA patient fibroblast cells (GM03813); test: Smn protein assay in cultured cells (SMN HTRF); type: cell-based, human; conditions: SMA patient fibroblast cells, 48 hours; for EC1.5x for Smn protein expression: 7-point concentration curve, SMN HTRF, concentration producing 1.5 times Smn protein vs DMSO vehicle control; for maximum fold (Fold) increase of Smn protein: 7-point concentration data, fold relative to vehicle control
Procedure, shortened: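 Smn protein quantified by HTRF with anti-SMN d2/kryptate pair, 665/620 nm ratio blank-corrected, in RIPA lysates of GM03813 fibroblasts after 48 h compound exposure (7 concentrations, 3.16-fold steps, triplicates). Values: concentration producing 1.5× vehicle Smn level, and maximal fold increase.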

Cc1cn2cc(-c3cc(=O)n4cc(N5CCN(C6CC6)[C@@H](C)C5)ccc4n3)cc(F)c2n1 [Compound 542, 7-[(3S)-4-cyclopropyl-3-methylpiperazin-1-yl]-2-(8-fluoro-2-methylimidazo[1,2-a]pyridin-6-yl)-4H-pyrido[1,2-a]pyrimidin-4-one]
EC (1.5-fold increase) [1]: < 0.1 µM
EC1.5x for Smn protein expression [2]: *** (an EC1.5× between >0.3 μM and ≤1 μM is indicated by three stars (***))
maximum fold (Fold) increase of Smn protein [2]: ***** (a fold increase >1.65 is indicated by five stars (*****))
melting point: 242 to 246 °C

Cc1cn2cc(-c3cc(=O)n4cc(N5CCN(C6CCC6)[C@@H](C)C5)ccc4n3)cc(F)c2n1 [Compound 543, 7-[(3S)-4-cyclobutyl-3-methylpiperazin-1-yl]-2-(8-fluoro-2-methylimidazo[1,2-a]pyridin-6-yl)-4H-pyrido[1,2-a]pyrimidin-4-one]
EC (1.5-fold increase) [1]: < 0.1 µM
EC1.5x for Smn protein expression [2]: **** (an EC1.5x≤0.3 μM is indicated by four stars (****))
maximum fold (Fold) increase of Smn protein [2]: ***** (a fold increase >1.65 is indicated by five stars (*****))
melting point: 264 to 267 °C

C[C@@H]1CN(c2ccc3nc(-c4ccc5c(cnn5C)c4)cc(=O)n3c2)CCN1 [Compound 545, 2-(1-methyl-1H-indazol-5-yl)-7-[(3R)-3-methylpiperazin-1-yl]-4H-pyrido[1,2-a]pyrimidin-4-one]
EC (1.5-fold increase) [1]: 0.1 to 0.3 µM
EC1.5x for Smn protein expression [2]: **** (an EC1.5x≤0.3 μM is indicated by four stars (****))
maximum fold (Fold) increase of Smn protein [2]: ***** (a fold increase >1.65 is indicated by five stars (*****))
melting point: 190 to 192 °C

CCc1nc(C)cn2nc(-c3cc(=O)n4cc(N5CCNCC5)ccc4n3)cc12 [Compound 546, 2-(4-ethyl-6-methylpyrazolo[1,5-a]pyrazin-2-yl)-7-(piperazin-1-yl)-4H-pyrido[1,2-a]pyrimidin-4-one]
EC (1.5-fold increase) [1]: < 0.1 µM
EC1.5x for Smn protein expression [2]: **** (an EC1.5x≤0.3 μM is indicated by four stars (****))
maximum fold (Fold) increase of Smn protein [2]: ***** (a fold increase >1.65 is indicated by five stars (*****))
melting point: 230 to 233 °C

CCc1nc(C)cn2nc(-c3cc(=O)n4cc(N5CCN(C)CC5)ccc4n3)cc12 [Compound 547, 2-(4-ethyl-6-methylpyrazolo[1,5-a]pyrazin-2-yl)-7-(4-methylpiperazin-1-yl)-4H-pyrido[1,2-a]pyrimidin-4-one]
EC (1.5-fold increase) [1]: < 0.1 µM
EC1.5x for Smn protein expression [2]: **** (an EC1.5x≤0.3 μM is indicated by four stars (****))
maximum fold (Fold) increase of Smn protein [2]: ***** (a fold increase >1.65 is indicated by five stars (*****))
melting point: 250 to 252 °C

CCc1nc(C)cn2nc(-c3cc(=O)n4cc(N5CCN(CC)CC5)ccc4n3)cc12 [Compound 548, 2-(4-ethyl-6-methylpyrazolo[1,5-a]pyrazin-2-yl)-7-(4-ethylpiperazin-1-yl)-4H-pyrido[1,2-a]pyrimidin-4-one]
EC (1.5-fold increase) [1]: < 0.1 µM
EC1.5x for Smn protein expression [2]: **** (an EC1.5x≤0.3 μM is indicated by four stars (****))
maximum fold (Fold) increase of Smn protein [2]: ***** (a fold increase >1.65 is indicated by five stars (*****))
melting point: 250 to 252 °C

CCc1nc(C)cn2nc(-c3cc(=O)n4cc(N5CCN(CCO)CC5)ccc4n3)cc12 [Compound 549, 2-(4-ethyl-6-methylpyrazolo[1,5-a]pyrazin-2-yl)-7-[4-(2-hydroxyethyl)piperazin-1-yl]-4H-pyrido[1,2-a]pyrimidin-4-one]
EC (1.5-fold increase) [1]: < 0.1 µM
EC1.5x for Smn protein expression [2]: **** (an EC1.5x≤0.3 μM is indicated by four stars (****))
maximum fold (Fold) increase of Smn protein [2]: ***** (a fold increase >1.65 is indicated by five stars (*****))
melting point: 240 to 242 °C

CCc1nc(C)cn2nc(-c3cc(=O)n4cc(N5CCC(N(C)C)CC5)ccc4n3)cc12 [Compound 550, 7-[4-(dimethylamino)piperidin-1-yl]-2-(4-ethyl-6-methylpyrazolo[1,5-a]pyrazin-2-yl)-4H-pyrido[1,2-a]pyrimidin-4-one]
EC (1.5-fold increase) [1]: < 0.1 µM
EC1.5x for Smn protein expression [2]: **** (an EC1.5x≤0.3 μM is indicated by four stars (****))
maximum fold (Fold) increase of Smn protein [2]: ***** (a fold increase >1.65 is indicated by five stars (*****))
melting point: 258 to 260 °C

CCc1nc(C)cn2nc(-c3cc(=O)n4cc(N5CCC(N(CC)CC)CC5)ccc4n3)cc12 [Compound 551, 7-[4-(diethylamino)piperidin-1-yl]-2-(4-ethyl-6-methylpyrazolo[1,5-a]pyrazin-2-yl)-4H-pyrido[1,2-a]pyrimidin-4-one]
EC (1.5-fold increase) [1]: 0.1 to 0.3 µM
EC1.5x for Smn protein expression [2]: **** (an EC1.5x≤0.3 μM is indicated by four stars (****))
maximum fold (Fold) increase of Smn protein [2]: ***** (a fold increase >1.65 is indicated by five stars (*****))
melting point: 232 to 235 °C

C[C@@H]1CN(c2ccc3nc(-c4ccc5c(cnn5C)c4)cc(=O)n3c2)C[C@H](C)N1 [Compound 552, 7-[(3R,5S)-3,5-dimethylpiperazin-1-yl]-2-(1-methyl-1H-indazol-5-yl)-4H-pyrido[1,2-a]pyrimidin-4-one]
EC (1.5-fold increase) [1]: 0.3 to 1 µM
EC1.5x for Smn protein expression [2]: *** (an EC1.5× between >0.3 μM and ≤1 μM is indicated by three stars (***))
maximum fold (Fold) increase of Smn protein [2]: **** (a fold increase between >1.5 and ≤1.65 is indicated by four stars (****))
melting point: 240 to 242 °C

C[C@H]1CN(c2ccc3nc(-c4ccc5c(cnn5C)c4)cc(=O)n3c2)CCN1 [Compound 553, 2-(1-methyl-1H-indazol-5-yl)-7-[(3S)-3-methylpiperazin-1-yl]-4H-pyrido[1,2-a]pyrimidin-4-one]
EC (1.5-fold increase) [1]: 0.1 to 0.3 µM
EC1.5x for Smn protein expression [2]: **** (an EC1.5x≤0.3 μM is indicated by four stars (****))
maximum fold (Fold) increase of Smn protein [2]: ***** (a fold increase >1.65 is indicated by five stars (*****))
melting point: 206 to 208 °C

Cc1cn2cc(-c3cc(=O)n4cc(C5CCN(C(C)C)CC5)ccc4n3)ccc2n1 [Compound 554, 2-(2-methylimidazo[1,2-a]pyridin-6-yl)-7-[1-(propan-2-yl)piperidin-4-yl]-4H-pyrido[1,2-a]pyrimidin-4-one]
EC (1.5-fold increase) [1]: 0.1 to 0.3 µM
EC1.5x for Smn protein expression [2]: **** (an EC1.5x≤0.3 μM is indicated by four stars (****))
maximum fold (Fold) increase of Smn protein [2]: ***** (a fold increase >1.65 is indicated by five stars (*****))
melting point: 218 to 220 °C

Cc1cn2ccc(-c3cc(=O)n4cc(N5CCNCC5)ccc4n3)cc2n1 [Compound 555, 2-(2-methylimidazo[1,2-a]pyridin-7-yl)-7-(piperazin-1-yl)-4H-pyrido[1,2-a]pyrimidin-4-one]
EC (1.5-fold increase) [1]: 1 to 3 µM
EC1.5x for Smn protein expression [2]: ** (an EC1.5× between >1 μM and ≤3 μM is indicated by two stars (**))
maximum fold (Fold) increase of Smn protein [2]: *** (a fold increase between >1.35 and ≤1.5 is indicated by three stars (***))
melting point: 272 to 277 °C

Cc1cn2ccc(-c3cc(=O)n4cc(C5CCNCC5)ccc4n3)cc2n1 [Compound 556, 2-(2-methylimidazo[1,2-a]pyridin-7-yl)-7-(piperidin-4-yl)-4H-pyrido[1,2-a]pyrimidin-4-one]
EC (1.5-fold increase) [1]: 0.3 to 1 µM
EC1.5x for Smn protein expression [2]: ** (an EC1.5× between >1 μM and ≤3 μM is indicated by two stars (**))
maximum fold (Fold) increase of Smn protein [2]: *** (a fold increase between >1.35 and ≤1.5 is indicated by three stars (***))
melting point: 257 to 260 °C

Cc1cn2ccc(-c3cc(=O)n4cc(N5CCN(C)CC5)ccc4n3)cc2n1 [Compound 557, 2-(2-methylimidazo[1,2-a]pyridin-7-yl)-7-(4-methylpiperazin-1-yl)-4H-pyrido[1,2-a]pyrimidin-4-one]
EC (1.5-fold increase) [1]: 1 to 3 µM
maximum fold (Fold) increase of Smn protein [2]: * (A maximum fold increase of ≤1.2 is indicated by one star (*))
melting point: 285 to 288 °C

CCN1CCN(c2ccc3nc(-c4ccn5cc(C)nc5c4)cc(=O)n3c2)CC1 [Compound 558, 7-(4-ethylpiperazin-1-yl)-2-(2-methylimidazo[1,2-a]pyridin-7-yl)-4H-pyrido[1,2-a]pyrimidin-4-one]
EC (1.5-fold increase) [1]: 1 to 3 µM
maximum fold (Fold) increase of Smn protein [2]: ** (a fold increase between >1.2 and ≤1.35 is indicated by two stars (**))
melting point: 219 to 222 °C

Cc1cn2ccc(-c3cc(=O)n4cc(C5CCN(C)CC5)ccc4n3)cc2n1 [Compound 559, 2-(2-methylimidazo[1,2-a]pyridin-7-yl)-7-(1-methylpiperidin-4-yl)-4H-pyrido[1,2-a]pyrimidin-4-one]
EC (1.5-fold increase) [1]: 1 to 3 µM
maximum fold (Fold) increase of Smn protein [2]: * (A maximum fold increase of ≤1.2 is indicated by one star (*))
melting point: 255 to 260 °C

CCN1CCC(c2ccc3nc(-c4ccn5cc(C)nc5c4)cc(=O)n3c2)CC1 [Compound 560, 7-(1-ethylpiperidin-4-yl)-2-(2-methylimidazo[1,2-a]pyridin-7-yl)-4H-pyrido[1,2-a]pyrimidin-4-one]
EC (1.5-fold increase) [1]: 1 to 3 µM
maximum fold (Fold) increase of Smn protein [2]: * (A maximum fold increase of ≤1.2 is indicated by one star (*))
melting point: 229 to 233 °C
